Source: PubChem BioAssay (NCI)
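Cells were grown in 96-well plates and exposed to each compound for 48 hours at five concentrations; endpoints were interpolated linearly between bracketing concentrations, or set to the highest concentration if not reached. At the GI50, growth is halved. TGI is the concentration that stops growth completely.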

Assays:
Assay in all cases: DTP human tumour cell line panel, 48 h
CAKI-1 renal = system: CAKI-1 renal
HCT-15 colon = system: HCT-15 colon
NCI/ADR-RES ovarian = system: NCI/ADR-RES ovarian
OVCAR-4 ovarian = system: OVCAR-4 ovarian
OVCAR-5 ovarian = system: OVCAR-5 ovarian
PC-3 prostate = system: PC-3 prostate
SF-295 CNS = system: SF-295 CNS
UACC-62 melanoma = system: UACC-62 melanoma
BT-549 breast = system: BT-549 breast
HCC-2998 colon = system: HCC-2998 colon

C=C(CC(=O)Nc1ccc(C(=O)OC)o1)C(=O)OC
TGI (CAKI-1 renal): 41.9 µM
TGI (HCT-15 colon): 59.1 µM
TGI (NCI/ADR-RES ovarian): > 100 µM
TGI (OVCAR-4 ovarian): 71.6 µM
TGI (OVCAR-5 ovarian): 35.5 µM
TGI (PC-3 prostate): 58.9 µM
TGI (SF-295 CNS): > 100 µM
TGI (UACC-62 melanoma): 72.4 µM

Cc1nccn1S(=O)(=O)c1ccc(Br)cc1Br
TGI (BT-549 breast): > 100 µM
TGI (CAKI-1 renal): > 100 µM
TGI (HCT-15 colon): > 100 µM
TGI (NCI/ADR-RES ovarian): > 100 µM
TGI (OVCAR-4 ovarian): > 100 µM
TGI (OVCAR-5 ovarian): > 100 µM
TGI (PC-3 prostate): > 100 µM
TGI (SF-295 CNS): 93.1 µM
TGI (UACC-62 melanoma): > 100 µM

CC(=O)NC1=C(C)C(=O)c2c(nc3n2CCC3O)C1=O (stereo unspecified)
TGI (CAKI-1 renal): > 100 µM
TGI (HCC-2998 colon): > 100 µM
TGI (HCT-15 colon): > 100 µM
TGI (OVCAR-4 ovarian): 29.7 µM
TGI (OVCAR-5 ovarian): > 100 µM
TGI (SF-295 CNS): > 100 µM
TGI (UACC-62 melanoma): 38.2 µM

O=C(NCCCCNCCCNC(=O)c1ccccc1)c1ccccc1
TGI (BT-549 breast): > 100 µM
TGI (HCC-2998 colon): > 100 µM
TGI (HCT-15 colon): > 100 µM
TGI (NCI/ADR-RES ovarian): > 100 µM
TGI (OVCAR-4 ovarian): > 100 µM
TGI (OVCAR-5 ovarian): > 100 µM
TGI (PC-3 prostate): > 100 µM
TGI (SF-295 CNS): > 100 µM
TGI (UACC-62 melanoma): > 100 µM

CCOP(=O)(OCC)/C(=C\N1C(=O)CC(=O)NC1=S)C(=O)OC
TGI (BT-549 breast): > 100 µM
TGI (CAKI-1 renal): > 100 µM
TGI (HCC-2998 colon): > 100 µM
TGI (HCT-15 colon): > 100 µM
TGI (NCI/ADR-RES ovarian): > 100 µM
TGI (OVCAR-4 ovarian): > 100 µM
TGI (OVCAR-5 ovarian): > 100 µM
TGI (SF-295 CNS): > 100 µM
TGI (UACC-62 melanoma): > 100 µM

CC(=NCCN(CCN=C(C)c1c(O)cc(C)oc1=O)CCN=C(C)c1c(O)cc(C)oc1=O)c1c(O)cc(C)oc1=O
TGI (HCC-2998 colon): > 100 µM
TGI (HCT-15 colon): > 100 µM
TGI (NCI/ADR-RES ovarian): > 100 µM
TGI (OVCAR-4 ovarian): > 100 µM
TGI (OVCAR-5 ovarian): > 100 µM
TGI (PC-3 prostate): > 100 µM
TGI (SF-295 CNS): > 100 µM

COc1ccccc1NC(=S)N/N=C(/C)c1ccccn1
TGI (CAKI-1 renal): > 100 µM
TGI (HCC-2998 colon): > 100 µM
TGI (HCT-15 colon): > 100 µM
TGI (OVCAR-4 ovarian): > 100 µM
TGI (OVCAR-5 ovarian): > 100 µM
TGI (PC-3 prostate): > 100 µM
TGI (SF-295 CNS): > 100 µM

CCc1nn(S(=O)(=O)c2ccc(C)cc2)c2c1CS(=O)(=O)CC2
TGI (BT-549 breast): > 100 µM
TGI (CAKI-1 renal): > 100 µM
TGI (HCT-15 colon): > 100 µM
TGI (NCI/ADR-RES ovarian): > 100 µM
TGI (OVCAR-4 ovarian): > 100 µM
TGI (OVCAR-5 ovarian): > 100 µM
TGI (PC-3 prostate): > 100 µM
TGI (SF-295 CNS): > 100 µM
TGI (UACC-62 melanoma): > 100 µM

CC1(C)[C@@H](Cn2cnc3c(=O)[nH]c(N)nc32)CC[C@@]1(C)CO
TGI (CAKI-1 renal): > 100 µM
TGI (HCC-2998 colon): > 100 µM
TGI (HCT-15 colon): > 100 µM
TGI (NCI/ADR-RES ovarian): > 100 µM
TGI (OVCAR-4 ovarian): > 100 µM
TGI (OVCAR-5 ovarian): > 100 µM
TGI (PC-3 prostate): > 100 µM
TGI (SF-295 CNS): > 100 µM
TGI (UACC-62 melanoma): > 100 µM

Cn1c(-c2ccc[se]2)ccc1-c1ccc(CO)[se]1
TGI (BT-549 breast): > 100 µM
TGI (CAKI-1 renal): < 0.0332 µM
TGI (HCC-2998 colon): 19.3 µM
TGI (HCT-15 colon): > 63.8 µM
TGI (NCI/ADR-RES ovarian): 52.2 µM
TGI (OVCAR-4 ovarian): > 100 µM
TGI (PC-3 prostate): > 100 µM
TGI (SF-295 CNS): > 100 µM
TGI (UACC-62 melanoma): > 100 µM

CC1CCc2c(sc3ncnc(N/N=C/c4ccc(Cl)c(Cl)c4)c23)C1 (stereo unspecified)
TGI (CAKI-1 renal): 56.6 µM
TGI (HCC-2998 colon): > 100 µM
TGI (HCT-15 colon): > 100 µM
TGI (OVCAR-5 ovarian): > 100 µM
TGI (SF-295 CNS): 43.2 µM
TGI (UACC-62 melanoma): 64.5 µM

C[C@@H]1C[C@]2(C[C@@H](C)[C@H]3C(C[C@@]4(C)CCC[C@@H]5C6=C[C@H](CCC34C)OC6=CC(=O)OC5(C)C)O2)OC1=O (stereo partly specified)
TGI (CAKI-1 renal): > 51.5 µM
TGI (HCC-2998 colon): > 51.5 µM
TGI (HCT-15 colon): > 51.5 µM
TGI (NCI/ADR-RES ovarian): > 51.5 µM
TGI (OVCAR-4 ovarian): > 51.5 µM
TGI (OVCAR-5 ovarian): > 51.5 µM
TGI (SF-295 CNS): > 51.5 µM
TGI (UACC-62 melanoma): > 51.5 µM

CC(NC1=NCCO1)c1cccc([N+](=O)[O-])c1 (stereo unspecified)
TGI (CAKI-1 renal): > 100 µM
TGI (HCC-2998 colon): > 100 µM
TGI (HCT-15 colon): > 100 µM
TGI (NCI/ADR-RES ovarian): > 100 µM
TGI (OVCAR-4 ovarian): > 100 µM
TGI (OVCAR-5 ovarian): > 100 µM
TGI (PC-3 prostate): > 100 µM
TGI (SF-295 CNS): > 100 µM
TGI (UACC-62 melanoma): > 100 µM

Oc1ccc2c(c1)CC[N+]1=C2CCC2CCCC21 (stereo unspecified)
TGI (CAKI-1 renal): > 100 µM
TGI (HCC-2998 colon): > 100 µM
TGI (HCT-15 colon): > 100 µM
TGI (OVCAR-4 ovarian): > 100 µM
TGI (OVCAR-5 ovarian): > 100 µM
TGI (SF-295 CNS): > 100 µM
TGI (UACC-62 melanoma): > 100 µM

O=C1c2ccccc2C(=O)c2c1ccc1c2N=C(c2ccc(F)cc2)CC(c2ccc(Cl)c(Cl)c2)N1 (stereo unspecified)
TGI (CAKI-1 renal): 17 µM
TGI (HCC-2998 colon): 27.8 µM
TGI (HCT-15 colon): 19.8 µM
TGI (OVCAR-4 ovarian): 37 µM
TGI (OVCAR-5 ovarian): 28 µM
TGI (SF-295 CNS): 28.6 µM
TGI (UACC-62 melanoma): 25.7 µM

CCOC(=O)c1c2c(n3ccc(NC(=O)OC(C)(C)C)cc13)C(=O)c1ncccc1C2=O
GI50 (BT-549 breast): 0.179 µM
TGI (BT-549 breast): 2.02 µM
GI50 (CAKI-1 renal): 0.0389 µM
TGI (CAKI-1 renal): 1.58 µM
GI50 (HCT-15 colon): 0.0195 µM
TGI (HCT-15 colon): 1.49 µM
GI50 (OVCAR-4 ovarian): 0.291 µM
TGI (OVCAR-4 ovarian): 3.22 µM
GI50 (OVCAR-5 ovarian): 0.0971 µM
TGI (OVCAR-5 ovarian): 1.65 µM
GI50 (PC-3 prostate): 0.25 µM
TGI (PC-3 prostate): 2.05 µM
GI50 (SF-295 CNS): 0.272 µM
TGI (SF-295 CNS): 1.13 µM
GI50 (UACC-62 melanoma): 0.138 µM
TGI (UACC-62 melanoma): 0.639 µM

CC(=O)NC1C(OCc2ccccc2)OC(CO)C(O)C1OCC(=O)NC(C)C(=O)NC(CCC(=O)NCCCCCNc1c2ccccc2nc2cccc([N+](=O)[O-])c12)C(N)=O (stereo unspecified)
TGI (BT-549 breast): < 0.0001 µM
TGI (CAKI-1 renal): < 0.0001 µM
TGI (HCC-2998 colon): < 0.0001 µM
TGI (HCT-15 colon): < 0.0001 µM
TGI (OVCAR-4 ovarian): 0.00615 µM
TGI (PC-3 prostate): < 0.0001 µM
TGI (SF-295 CNS): 0.0265 µM

CCNC(=O)/C=C/CCC#Cc1ccc(-c2ccc(-c3cccs3)s2)s1
TGI (CAKI-1 renal): > 100 µM
TGI (HCC-2998 colon): > 100 µM
TGI (HCT-15 colon): > 100 µM
TGI (OVCAR-4 ovarian): > 100 µM
TGI (OVCAR-5 ovarian): > 100 µM
TGI (SF-295 CNS): > 100 µM
TGI (UACC-62 melanoma): > 100 µM

O=C1C=C2CO[C@H]3OC[C@H](O)[C@@H]1[C@@H]23
TGI (BT-549 breast): > 100 µM
TGI (CAKI-1 renal): 89 µM
TGI (HCC-2998 colon): > 100 µM
TGI (HCT-15 colon): > 100 µM
TGI (NCI/ADR-RES ovarian): > 100 µM
TGI (OVCAR-5 ovarian): > 100 µM
TGI (PC-3 prostate): > 100 µM
TGI (SF-295 CNS): > 100 µM
TGI (UACC-62 melanoma): > 100 µM

Cc1ccc(-n2c(O)c3c(N)n[nH]c3c(C#N)c2=O)cc1
TGI (BT-549 breast): > 100 µM
TGI (CAKI-1 renal): > 100 µM
TGI (HCC-2998 colon): > 100 µM
TGI (HCT-15 colon): > 100 µM
TGI (NCI/ADR-RES ovarian): > 100 µM
TGI (OVCAR-4 ovarian): > 100 µM
TGI (OVCAR-5 ovarian): > 100 µM
TGI (PC-3 prostate): > 100 µM
TGI (UACC-62 melanoma): > 100 µM

O=C1CCCC2=C1C(c1ccc3c(c1)OCO3)Nc1ccc3ccccc3c12 (stereo unspecified)
TGI (BT-549 breast): > 100 µM
TGI (CAKI-1 renal): > 100 µM
TGI (HCC-2998 colon): > 100 µM
TGI (HCT-15 colon): > 100 µM
TGI (NCI/ADR-RES ovarian): > 100 µM
TGI (OVCAR-5 ovarian): > 100 µM
TGI (SF-295 CNS): > 100 µM
TGI (UACC-62 melanoma): > 100 µM

O=C(OCCN1CCCCC1)C(c1ccccc1)C1(O)CCSCC1 (stereo unspecified)
TGI (CAKI-1 renal): > 100 µM
TGI (HCC-2998 colon): > 100 µM
TGI (HCT-15 colon): > 100 µM
TGI (NCI/ADR-RES ovarian): > 100 µM
TGI (OVCAR-4 ovarian): > 100 µM
TGI (OVCAR-5 ovarian): > 100 µM
TGI (PC-3 prostate): > 100 µM
TGI (SF-295 CNS): > 100 µM
TGI (UACC-62 melanoma): > 100 µM

CN1C/C(=C\c2ccc(Cl)cc2)C(=O)/C(=C/c2ccc(Cl)cc2)C1
TGI (CAKI-1 renal): > 27.6 µM
TGI (HCC-2998 colon): > 100 µM
TGI (NCI/ADR-RES ovarian): > 22.5 µM
TGI (OVCAR-4 ovarian): > 65.9 µM
TGI (OVCAR-5 ovarian): > 100 µM
TGI (PC-3 prostate): > 100 µM
TGI (SF-295 CNS): 2.07 µM
TGI (UACC-62 melanoma): 8.35 µM

COc1ccc(Oc2nc3ccc(C(F)(F)F)cc3nc2-c2ccccc2)cc1
TGI (CAKI-1 renal): > 100 µM
TGI (HCC-2998 colon): > 100 µM
TGI (HCT-15 colon): > 100 µM
TGI (OVCAR-4 ovarian): > 100 µM
TGI (OVCAR-5 ovarian): > 100 µM
TGI (PC-3 prostate): > 100 µM
TGI (SF-295 CNS): > 100 µM
TGI (UACC-62 melanoma): > 100 µM
